Biological target: T1, ANT-(4′) (Staphylococcus aureus, UniProt P05057)
T1 construct: gene knt; pET plasmid pET-ANT-(4′) in E. coli BL21 (printed for MIC strains)
Test: thermal shift, SYPRO Orange
Assay type: binding
Details: Tris 10 mM pH 8.0, 0.2 mM NaCl; protein 4.4 µM and ligand 10 µM solutions mixed; blank Tm 58 ± 0.1
Description: thermal shift, SYPRO Orange on ANT-(4′)

T1 sequence (P05057 whole entry): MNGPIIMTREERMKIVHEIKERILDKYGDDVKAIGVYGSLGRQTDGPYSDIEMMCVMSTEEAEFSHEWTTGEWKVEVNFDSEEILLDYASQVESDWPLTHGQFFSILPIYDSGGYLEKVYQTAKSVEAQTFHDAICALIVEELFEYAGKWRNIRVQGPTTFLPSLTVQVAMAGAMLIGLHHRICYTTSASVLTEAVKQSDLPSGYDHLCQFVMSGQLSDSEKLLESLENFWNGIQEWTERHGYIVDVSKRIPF

Structure (SMILES)	1 [°C]	4 [°C]
NC[C@H]1O[C@H](O[C@H]2[C@H](O)[C@@H](O[C@H]3O[C@H](CO)[C@@H](O)[C@H](N)[C@H]3O)[C@H](N)C[C@@H]2N)[C@H](O)[C@@H](O)[C@@H]1O [compound 1, Kanamycin A]	61.5 ± 0.1	
NC[C@H]1O[C@H](O[C@H]2[C@H](O)[C@@H](O)[C@H](N)C[C@@H]2N)[C@H](N)[C@@H](O)[C@@H]1O [compound 4, 4-O-(2,6-di-Deoxy-α-D-2,6-di-amine-glucopyranosyl)-2-deoxy-streptamine]		61 ± 0.1

Reference: paper PMC6783941, “Synthesis of Ring II/III Fragment of Kanamycin: A New Minimum Structural Motif for Aminoglycoside Recognition” (Antibiotics, 2019)
